According to patent US20070238765A1, “Heterocyclic GABAA subtype selective receptor modulators” (Roche Palo Alto LLC, priority 2006, published 2007):

Legend:
[1] = target: T1, GABAA α2β3γ2 (Homo sapiens, UniProt P18507+P28472+P47869); experiment: 35S-TBPS binding assay, HEK293 membranes with GABAA α2β3γ2 construct; details: 35S-TBPS 5 nM, GABA 1 μM, 2 hours at room temperature, read-out: α2β3γ2 (35S-TBPS binding, pIC50) (converted)
T1 construct: expressed in transfected cells; host or cells: HEK293
T1 sequence (P47869 29-451): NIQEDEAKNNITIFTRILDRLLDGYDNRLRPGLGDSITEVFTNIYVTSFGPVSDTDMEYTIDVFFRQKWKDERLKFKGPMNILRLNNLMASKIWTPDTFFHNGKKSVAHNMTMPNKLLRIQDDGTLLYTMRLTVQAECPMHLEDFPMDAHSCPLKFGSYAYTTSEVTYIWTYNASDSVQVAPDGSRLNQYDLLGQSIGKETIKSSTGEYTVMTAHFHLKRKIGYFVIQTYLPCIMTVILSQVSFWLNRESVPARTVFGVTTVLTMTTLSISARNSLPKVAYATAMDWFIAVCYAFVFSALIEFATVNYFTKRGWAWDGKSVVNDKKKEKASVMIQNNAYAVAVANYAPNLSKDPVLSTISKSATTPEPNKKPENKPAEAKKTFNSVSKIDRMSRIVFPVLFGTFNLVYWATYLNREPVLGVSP
T1 sequence (P28472 26-473): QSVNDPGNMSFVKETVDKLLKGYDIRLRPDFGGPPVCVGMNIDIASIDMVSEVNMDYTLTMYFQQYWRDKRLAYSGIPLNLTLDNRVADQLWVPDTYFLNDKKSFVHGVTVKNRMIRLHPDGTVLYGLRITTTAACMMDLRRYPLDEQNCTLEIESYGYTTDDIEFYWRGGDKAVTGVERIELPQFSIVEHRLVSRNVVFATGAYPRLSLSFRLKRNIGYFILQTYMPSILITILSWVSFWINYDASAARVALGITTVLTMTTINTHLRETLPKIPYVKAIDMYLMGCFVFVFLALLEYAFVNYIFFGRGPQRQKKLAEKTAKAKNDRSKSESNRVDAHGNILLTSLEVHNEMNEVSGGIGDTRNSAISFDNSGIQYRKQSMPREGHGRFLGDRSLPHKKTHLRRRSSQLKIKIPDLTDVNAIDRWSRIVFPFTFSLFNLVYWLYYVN
T1 sequence (P18507 40-475): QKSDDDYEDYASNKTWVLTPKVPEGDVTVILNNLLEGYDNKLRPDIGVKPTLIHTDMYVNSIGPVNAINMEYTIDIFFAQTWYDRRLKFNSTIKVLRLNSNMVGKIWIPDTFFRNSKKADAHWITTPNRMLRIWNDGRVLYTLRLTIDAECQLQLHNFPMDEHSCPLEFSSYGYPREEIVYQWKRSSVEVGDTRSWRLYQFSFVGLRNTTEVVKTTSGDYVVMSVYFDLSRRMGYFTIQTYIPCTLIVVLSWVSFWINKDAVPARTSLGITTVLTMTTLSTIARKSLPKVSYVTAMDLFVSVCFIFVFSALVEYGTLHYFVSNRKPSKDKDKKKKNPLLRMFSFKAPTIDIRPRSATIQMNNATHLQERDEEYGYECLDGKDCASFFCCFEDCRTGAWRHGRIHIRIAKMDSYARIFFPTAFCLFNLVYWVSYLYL
Procedure: (§1) The binding assay is based on the assay reported by K. Gee et al., Eur. J. Pharmacol. 1987, 136, 419-423.
(§2) Homogenate preparation: Membrane preparations of HEK293 cells containing either GABAA α1β2γ2 or GABAA α2β3γ2 constructs were performed according to a modified procedure previously described by Gee et al. (supra). Whole HEK 293 cells in D-PBS (calcium/magnesium free) buffer adjusted to pH 7.4 were centrifuged at 7,280×g for 20 m. After discarding the supernatant, the pellet was resuspended in the buffer and centrifuged at 1,820×g for 10 m. Afterwards, the supernatant was discarded and the pellet resuspended in ice-cold preparation buffer (50 mM Tris HCl pH 7.4, 4° C. and 150 mM KCl), homogenized for 30 sec using a Brinkmann Polytron PT3000 (setting 6) and centrifuged at 48,000×g for 30 m at 4° C. The centrifugation and homogenization procedure was repeated two more times for a total of 3 times before resuspending the membranes at a final protein concentration of 0.5 mg/mL. Aliquots (30 mL) of the final membrane preparation were then centrifuged at 48,000×g for 30 m, and the resulting pellets were stored at −80° C. until required.
(§3) 35S-TBPS binding assay. Membrane pellets containing either GABAA α1β2γ2 or GABAA α2β3γ2 constructs were thawed on ice, resuspended in 10 mL of 50 mM Tris HCl pH7.4, 4° C. and 150 mM KCl and centrifuged at 48,000×g, 30 m at 4° C. After discarding the supernatant, the pellet was resuspended in 30 mL incubation buffer (50 mM Tris HCl pH 7.4, 25° C. and 150 mM KCl) at approximately 0.5 mg/mL protein concentration. In 35S-TBPS competition studies, HEK293 membranes were incubated with 35S-TBPS (5 nM final) and GABA (1 μM) in the absence or presence of competitor at concentrations ranging from 0.01 nM to 10 μM in 125 μL incubation buffer for 2 hours at room temperature (˜22° C.). Non-specific binding was assayed with picrotoxin (100 μM final concentration). The binding reaction was terminated by vacuum filtration through GF/B filters previously soaked in 0.1% polyethylenimine followed by 3×1 mL washes with ice cold wash buffer (50 mM Tris HCl pH7.4, 4° C. and 150 mM KCl). Measurement of bound radioactivity was performed using a Packard Microplate 96 well topcount scintillation counter. Analysis of competition curves and estimation of pIC50 values of test compounds were performed using the software programs ActivityBase and/or Prism (version 3.0).

[2] = target: T2, GABAA α1β2γ2 (Homo sapiens, UniProt P14867+P18507+P47870); experiment: 35S-TBPS binding assay, HEK293 membranes with GABAA α1β2γ2 construct; details: 35S-TBPS 5 nM, GABA 1 μM, 2 hours at room temperature, read-out: α1β2γ2 (35S-TBPS binding, pIC50) (converted)
T2 construct: expressed in transfected cells; host or cells: HEK293
T2 sequence (P14867 28-456): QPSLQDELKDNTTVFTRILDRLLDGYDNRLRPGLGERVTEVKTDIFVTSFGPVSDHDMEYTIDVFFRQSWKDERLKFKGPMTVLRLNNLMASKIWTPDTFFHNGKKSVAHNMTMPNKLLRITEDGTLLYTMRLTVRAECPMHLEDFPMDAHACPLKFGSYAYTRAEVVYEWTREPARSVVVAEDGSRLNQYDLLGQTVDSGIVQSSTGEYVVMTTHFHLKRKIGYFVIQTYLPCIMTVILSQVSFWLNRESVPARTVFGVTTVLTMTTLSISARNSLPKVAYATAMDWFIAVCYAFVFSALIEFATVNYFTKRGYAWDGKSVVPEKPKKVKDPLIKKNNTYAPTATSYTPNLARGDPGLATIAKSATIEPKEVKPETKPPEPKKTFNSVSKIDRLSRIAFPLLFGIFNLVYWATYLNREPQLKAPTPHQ
T2 sequence (P47870 25-512 limits assumed): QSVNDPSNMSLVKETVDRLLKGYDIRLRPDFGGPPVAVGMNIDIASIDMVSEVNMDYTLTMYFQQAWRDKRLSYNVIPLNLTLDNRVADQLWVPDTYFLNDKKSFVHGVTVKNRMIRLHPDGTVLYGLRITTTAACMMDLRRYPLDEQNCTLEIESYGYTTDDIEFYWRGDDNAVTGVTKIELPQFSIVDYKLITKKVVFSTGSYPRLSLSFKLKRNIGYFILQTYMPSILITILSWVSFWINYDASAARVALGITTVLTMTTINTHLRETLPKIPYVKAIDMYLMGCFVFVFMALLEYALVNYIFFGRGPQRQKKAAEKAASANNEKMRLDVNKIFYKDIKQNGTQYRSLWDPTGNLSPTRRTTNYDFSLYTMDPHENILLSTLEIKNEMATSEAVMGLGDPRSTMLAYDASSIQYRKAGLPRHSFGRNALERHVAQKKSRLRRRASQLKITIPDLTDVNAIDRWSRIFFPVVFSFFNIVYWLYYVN
T2 sequence (P18507 40-475): as the sequence (P18507 40-475) above
Procedure: as §1, §2, §3

Row | SMILES | IC50 [1] | IC50 [2] | melting point
1 | Cn1nc2c(-c3ccc(Cl)cc3Cl)cccc2c1Cc1nc[nH]n1 [I-31, 7-(2,4-Dichloro-phenyl)-2-meth-yl-3-(1H-[1,2,4]triazol-3-yl-methyl)-2H-indazole] | 355 nM | 4170 nM | 206.3 to 207 °C
2 | Cc1noc(-c2c3cccc(-c4ccc(Cl)cc4Cl)c3nn2C)n1 [I-50, 7-(2,4-Dichloro-phenyl)-2-meth-yl-3-(3-methyl-[1,2,4]oxa-diazol-5-yl)-2H-inda-zole] | 676 nM | > 10000 nM | 178 to 178.5 °C
3 | Cn1nnnc1Cc1c2cccc(-c3ccc(Cl)cc3Cl)c2nn1C [I-20, 7-(2,4-Dichloro-phenyl)-2-meth-yl-3-(1-methyl-1H-tetra-zol-5-ylmethyl)-2H-inda-zole] | 1700 nM | – | 183.9 to 185.4 °C
4 | Cn1nc2c(-c3ccc(Cl)cc3Cl)cccc2c1Cc1nnn(CS(C)(=O)=O)n1 [I-12, 7-(2,4-Dichloro-phenyl)-3-(2-meth-anesulfonylmethyl-2H-tetra-zol-5-ylmethyl)-2-meth-yl-2H-indazole] | 269 nM | 1150 nM | 156.6 to 157.8 °C
5 | Cn1nc2c(-c3ccc(Cl)cc3Cl)cccc2c1C1=NCCO1 [I-48, 7-(2,4-Dichloro-phenyl)-3-(4,5-di-hydro-oxazol-2-yl)-2-meth-yl-2H-indazole] | 468 nM | > 10000 nM | 162.2 to 167.1 °C
6 | Cn1nc2c(-c3ccc(Cl)cc3Cl)cccc2c1C(=O)c1ncn[nH]1 [I-15, [7-(2,4-Dichloro-phenyl)-2-meth-yl-2H-indazol-3-yl]-(2H-[1,2,4]tri-azol-3-yl)-meth-anone] | 331 nM | > 10000 nM | 283.9 to 284.9 °C
7 | Cn1nnc(Cc2c3cccc(-c4ccc(Cl)cc4Cl)c3nn2C)n1 [I-33, 7-(2,4-Dichloro-phenyl)-2-meth-yl-3-(2-methyl-2H-tetra-zol-5-ylmethyl)-2H-inda-zole] | 102 nM | 1480 nM | 158.8 to 160.5 °C
8 | Cn1nc2c(-c3ccc(Cl)cc3Cl)cccc2c1C(=O)c1nnn[nH]1 [I-18, [7-(2,4-Dichloro-phenyl)-2-meth-yl-2H-indazol-3-yl]-(1H-tetra-zol-5-yl)-methanone] | 110 nM | 933 nM | 209.8 to 210.3 °C
9 | Cn1nc2c(-c3ccc(Cl)cc3Cl)cccc2c1C1=NCCN1 [I-41, 7-(2,4-Dichloro-phenyl)-3-(4,5-di-hydro-1H-imidazol-2-yl)-2-meth-yl-2H-indazole] | 4680 nM | > 10000 nM | 212.8 to 214.5 °C
10 | Cn1nc2c(-c3ccc(Cl)cc3Cl)cccc2c1CCc1nnn[nH]1 [I-46, 7-(2,4-Dichloro-phenyl)-2-meth-yl-3-[2-(1H-tetrazol-5-yl)-eth-yl]-2H-indazole] | 603 nM | 479 nM | 209.4 to 210.3 °C
11 | Cn1nc2c(-c3ccc(Cl)cc3Cl)cccc2c1Cc1nnn(CCO)n1 [I-11, 2-{5-[7-(2,4-Dichloro-phenyl)-2-methyl-2H-inda-zol-3-ylmethyl]-tetrazol-2-yl}-eth-anol] | 347 nM | 1510 nM | 147.7 to 151.1 °C
12 | Cn1nc2c(-c3ccc(Cl)cc3Cl)cccc2c1-c1nnco1 [I-39, 7-(2,4-Dichloro-phenyl)-2-meth-yl-3-[1,3,4]oxadiazol-2-yl-2H-inda-zole] | 2820 nM | > 10000 nM | 199 to 201.2 °C
13 | Cn1nc2c(-c3ccc(Cl)cc3Cl)cccc2c1Cc1nnnn1CCO [I-10, 2-{5-[7-(2,4-Dichloro-phenyl)-2-methyl-2H-inda-zol-3-ylmethyl]-tetrazol-1-yl}-eth-anol] | 398 nM | > 10000 nM | 66.1 to 87.2 °C
14 | Cn1nc2c(-c3ccc(Cl)cc3Cl)cccc2c1CN1CCOC1=O [I-8, 3-[7-(2,4-Dichloro-phenyl)-2-meth-yl-2H-indazol-3-yl-methyl]-oxazolidin-2-one] | 1510 nM | 6310 nM | 165.9 to 167.5 °C
15 | Cn1nc2c(-c3ccc(Cl)cc3Cl)cccc2c1/C=C/c1nnn[nH]1 [I-47, 7-(2,4-Dichloro-phenyl)-2-meth-yl-3-[(E)-2-(1H-tetra-zol-5-yl)-vinyl]-2H-inda-zole] | 151 nM | 1200 nM | 256.8 to 258.1 °C
16 | Cn1nc2c(-c3ccc(Cl)cc3Cl)cccc2c1-c1cnco1 [I-51, 7-(2,4-Dichloro-phenyl)-2-meth-yl-3-oxazol-5-yl-2H-inda-zole] | 166 nM | 3020 nM | 167.5 to 169.5 °C
17 | Cn1nc2c(-c3ccc(Cl)cc3Cl)cccc2c1CCc1ncn[nH]1 [I-34, 7-(2,4-Dichloro-phenyl)-2-meth-yl-3-[2-(2H-[1,2,4]tri-azol-3-yl)-ethyl]-2H-inda-zole] | 309 nM | 9550 nM | 92 to 115.5 °C
18 | Cn1nc2c(-c3ccc(Cl)cc3Cl)cccc2c1CCC1=NCCN1 [I-38, 7-(2,4-Dichloro-phenyl)-3-[2-(4,5-di-hydro-1H-imidazol-2-yl)-eth-yl]-2-methyl-2H-inda-zole] | > 10000 nM | > 10000 nM | 60.5 to 65.1 °C
19 | Cn1nc2c(-c3ccc(Cl)cc3Cl)cccc2c1-n1ccnc1 [I-22, 7-(2,4-Dichloro-phenyl)-3-imi-dazol-1-yl-2-methyl-2H-inda-zole] | 355 nM | 3160 nM | 63.2 to 89.4 °C
20 | Cn1nc2c(-c3ccc(Cl)cc3Cl)cccc2c1-n1cnnc1 [I-23, 7-(2,4-Dichloro-phenyl)-2-meth-yl-3-[1,2,4]triazol-4-yl-2H-inda-zole] | 4070 nM | > 10000 nM | 117.9 to 121.3 °C
21 | Cn1nc2c(-c3ccc(Cl)cc3Cl)cccc2c1Cc1nnn[nH]1 [I-53, 7-(2,4-Dichloro-phenyl)-2-meth-yl-3-(1H-tetrazol-5-yl-methyl)-2H-indazole] | 234 nM | 2240 nM | 270.1 to 275.5 °C
